We go through 20 compounds from PubChem BioAssay (NCI).

Holding throughout (assay): NCI tumour cell line growth inhibition, 48 h
In assay [1] the test system is COLO 205 colon.
Assay [2] deals with HCT-15 colon.
Assay [3] deals with NCI-H23 lung.
In assay [4] the test system is OVCAR-8 ovarian.
The test system of assay [5] is SK-MEL-2 melanoma.
Assay [6] deals with TK-10 renal.

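Five concentrations, 48 hours, 96-well plates. TGI: total growth inhibition.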

Consider `Cc1ccc(N=Nc2ccc(O)c(CN(C)C)c2)cc1`, for which the TGI in assay [1] is 35.2 µM; in assay [2], 50.2 µM; in assay [3], more than 100 µM; in assay [4], 42.3 µM; in assay [5], 37.7 µM; in assay [6], 44.5 µM.
Turning to `O=C1NC(=O)C2(CCCCCC2)N1`, the TGI in assay [1], in assay [2], in assay [3], in assay [4], in assay [5] and in assay [6] was more than 100 µM throughout.
On to `Nc1cc(N2CCCC2)nc(=O)n1-c1ccccc1`, for which the TGI in assay [1], in assay [2], in assay [3], in assay [4], in assay [5] and in assay [6] was more than 100 µM in each case.
For `CC(=O)NC(CCC(=O)C=[N+]=N)C(=O)O` (centres undefined), the TGI in assay [1], in assay [2], in assay [3], in assay [4], in assay [5] and in assay [6] was more than 100 µM each time.
Consider `Oc1ccc(N=C2CCC(=C(c3ccccc3)c3ccc(Nc4ccc(O)cc4)cc3)CC2)cc1`, for which the TGI in assay [1], in assay [2], in assay [3], in assay [4], in assay [5] and in assay [6] was more than 100 µM throughout.
Consider `CCOC(=O)CSc1nnc2cc(CN3CCCC3)c(-c3ccc(Cl)cc3)nn12`, for which the TGI in assay [1], in assay [2], in assay [3], in assay [4], in assay [5] and in assay [6] was more than 100 µM each time.
As for `CC(=O)Nc1ccc(-c2nc3ccccc3s2)cc1I`, the TGI in assay [1] was more than 100 µM; in assay [2], more than 100 µM; in assay [3] it was 51.4 µM; in assay [4] it was 37.7 µM; in assay [5], more than 100 µM.
On to `CC1Oc2c(c(=O)oc3ccccc23)[C@@]1(C)CC1C[C@H](C)C(=O)O1` (some centres undefined), for which the TGI was more than 100 µM in assay [1]; more than 100 µM in assay [2]; 40.9 µM in assay [3]; more than 100 µM in assay [4]; more than 100 µM in assay [5]; more than 100 µM in assay [6].
As for `CCC(=O)c1ccc2[nH]c3c(C)c4c(=O)cc(C)[nH]c4c(C)c3c2c1`, the TGI in assay [1], in assay [2], in assay [3], in assay [4], in assay [5] and in assay [6] was more than 100 µM in each case.
Turning to `C=C(C)[C@@]1(OC(=O)c2cc([N+](=O)[O-])cc([N+](=O)[O-])c2)C[C@@H]2CCCC[C@@H]21`, the TGI in assay [1], in assay [2], in assay [3], in assay [4], in assay [5] and in assay [6] was more than 100 µM each time.
In the case of `CCOC(=O)c1cnc2n(c1=N)[C@H]1CCCC[C@@H]1N2`, the TGI in assay [1], in assay [2], in assay [3], in assay [4] and in assay [5] was more than 100 µM each time.
For the compound `Cc1ncc2c(=O)c3c(oc2n1)c1ccccc1n3Cc1ccccc1`, the TGI in assay [1], in assay [2], in assay [3], in assay [4] and in assay [6] was more than 100 µM in each case.
As for `O=C(c1ccccc1)c1ccc(-n2c3ccccc3c3ccc4c(c32)C(=O)C=CC4=O)cc1`, the TGI was 25.9 µM in assay [1]; 31.3 µM in assay [2]; 29.5 µM in assay [3]; 27.2 µM in assay [4]; 37.3 µM in assay [5]; 25.3 µM in assay [6].
On to `CC1CC[C@@]2(OC1)OC1CC3C4CCC5C[C@@H](OC6OC(CO)C(OC7OC(CO)C(O)C(OC8OC(CO)C(O)C(OC9OC(CO)C(O)C(O)C9O)C8O)C7OC7OC(CO)C(O)C(O)C7O)C(O)C6O)[C@H](O)C[C@]5(C)C4CC[C@]3(C)C1[C@@H]2C` (some centres undefined), for which the TGI in assay [1], in assay [2], in assay [3], in assay [4] and in assay [6] was more than 80.5 µM each time.
Consider `COC(=O)c1c(O)ccc2c1c1c(n2Cc2ccc(Cl)cc2Cl)C(=O)c2ccccc2C1=O`, for which the TGI in assay [1] amounted to 24.3 µM; in assay [2], 18.5 µM; in assay [3], 24.8 µM; in assay [4], 21.4 µM; in assay [5], 28.8 µM; in assay [6], 29 µM.
Take `O=c1oc2ccccc2c(O)c1/C=N/C(=S)NCCc1ccccc1`: the TGI was more than 100 µM in assay [1]; more than 100 µM in assay [2]; more than 88 µM in assay [3]; more than 100 µM in assay [4]; more than 85.1 µM in assay [5]; more than 100 µM in assay [6].
In the case of `CCOc1ccc(N/C(Cl)=C(Cl)\C(=C(\Nc2ccc(OCC)cc2)n2nnc3ccccc32)[N+](=O)[O-])cc1`, the TGI in assay [1] is 25.4 µM; in assay [2] it was 7.4 µM; in assay [3], 22.3 µM; in assay [4] it was 3.46 µM; in assay [5] it was 35.5 µM; in assay [6], 17.1 µM.
For the compound `CCOC(=O)[C@@]12C[C@](/C=C/OC)(O[Si](C)(C)C)[C@@]13c1cc(OC)c(OC)cc1CCN3C(=O)C2O` (some centres undefined), the TGI in assay [1], in assay [2], in assay [3], in assay [4], in assay [5] and in assay [6] was more than 100 µM throughout.
Take `CN(N)c1cc(=O)[nH]c(=O)[nH]1`: the TGI in assay [2], in assay [3], in assay [4] and in assay [6] was more than 100 µM throughout.
For `CC(NC(=O)c1ccccc1)NC(=O)C(C)C(=O)Nc1ccccc1` (centres undefined), the TGI in assay [1], in assay [2], in assay [3], in assay [4], in assay [5] and in assay [6] was more than 100 µM throughout.
